From US20200247812A1 (Integral Biosciences Private Limited, priority 2018, published 2020)
pIC50: −log10 of the molar value.

Columns and labels:
[1] = system: A427; test: Cell viability assay (resazurin), A427; format: cell-based; conditions: Homo sapiens, A-427, 72-144 hr
Procedure: (§1) Different cell lines such as pancreatic, (MIA PaCa-2; ATCC®CRL-1420™ & and Panc-1; CRL-1469™), liver carcinoma (HepG2; ATCC® HB-8065™), lung epithelial carcinoma (A549; ATCC® CCL-185™) and others were seeded in their respective medium (DMEM, Cat #10569044, MEM, Cat #41090036; RPMI, Cat #22400089; all with 10% FBS, Gibco, ThermoFisher) at a cell count of 3000 cells per 100 μl per well in a 96 well edge plate (167425; ThermoFisher). Cells were allowed to grow at 37° C. for 24 hr in 5% CO2 (culture conditions) in a Nuaire incubator (humidified). Serially diluted compounds (100 μl) were added to the culture plate 24 hr later and the cultures were further incubated in culture conditions for specified time depending on doubling time of specific cell line (ranging from 72-144 hr). Experiment was terminated at the completion of incubation time with the drug by replacing the medium with 100 μl of 1 mM of resazurin (R7017; Sigma) prepared in respective culture medium and the plates were further incubated in culture conditions for 4 hr. Fluorescence was then measured using a multimodal plate reader (Biotek Synergy Neo) at an excitation wavelength of 535 nm and emission wavelength of 590 nm to obtain relative fluorescence units. Data analysis was done by subtracting the background fluorescence (only medium blank) value from each reading and then normalizing with the vehicle control (DMSO treated cells) to obtain percent survival/proliferation. Percent survival at different doses was used to calculate IC50 by fitting the curve to the “four-parameter variable slope logistic model” using Prism Graph Pad.

[2] = system: Panc-1; test: Cell viability assay (resazurin), Panc-1; format: cell-based; conditions: Homo sapiens, 72-144 hr
Procedure: Different cell lines such as pancreatic, (MIA PaCa-2; ATCC®CRL-1420™ & and Panc-1; CRL-1469™), liver carcinoma (HepG2; ATCC® HB-8065™), lung epithelial carcinoma (A549; ATCC® CCL-185™) and others were seeded in their respective medium (DMEM, Cat #10569044, MEM, Cat #41090036; RPMI, Cat #22400089; all with 10% FBS, Gibco, ThermoFisher) at a cell count of 3000 cells per 100 μl per well in a 96 well edge plate (167425; ThermoFisher). Cells were allowed to grow at 37° C. for 24 hr in 5% CO2 (culture conditions) in a Nuaire incubator (humidified). Serially diluted compounds (100 μl) were added to the culture plate 24 hr later and the cultures were further incubated in culture conditions for specified time depending on doubling time of specific cell line (ranging from 72-144 hr). […] Fluorescence was then measured using a multimodal plate reader (Biotek Synergy Neo) at an excitation wavelength of 535 nm and emission wavelength of 590 nm to obtain relative fluorescence units. Data analysis was done by subtracting the background fluorescence (only medium blank) value from each reading and then normalizing with the vehicle control (DMSO treated cells) to obtain percent survival/proliferation. […]

[3] = system: human PBMC's; test: Viability in CD3e/CD28 activated human PBMC's (resazurin); format: cell-based; conditions: 72 hr
Procedure: IC50 values of compounds for determining viability in CD3e/CD28 activated human PBMC's (hPBMC-34033, Cat # CC-2702; Lonza) cultured in LGM3 medium, Cat # CC #3211; Lonza). Human PBMC's (0.25×10^6 cells/well) were activated with Anti-human CD3e (0.5 μg/ml, coated overnight at 4° C.; Cat #16-0037-81, eBioscience) and then incubated with serial dilutions of compounds (3 fold, 8 point dose response starting at 30 μM) for 30 min at 37° C., 5% CO2 in an incubator (cell culture conditions) prior to treating them with Anti-human CD28 (0.25 μg/ml soluble; Cat #16-0289-81, eBiosciences). Human PBMC's were further incubated under cell culture conditions for 72 hr following which experiment was terminated by replacing the medium with 100 μl of 1 mM of resazurin (R7017; Sigma) prepared in culture medium and the plates were further incubated in culture conditions for 4 hr. Fluorescence was then measured using a multimodal plate reader (Biotek Synergy Neo) at an excitation wavelength of 535 nm and emission wavelength of 590 nm to obtain relative fluorescence units. Data analysis was done by subtracting the background fluorescence (only medium blank) value from each reading and then normalizing with the vehicle control (DMSO treated cells) to obtain percent survival/proliferation. Percent survival at different doses was used to calculate IC50 by fitting the curve to the “four-parameter variable slope logistic model” using Prism Graph Pad.

[4] = system: MDA_MB-231; test: Cell viability assay (resazurin), MDA_MB-231; format: cell-based; conditions: Homo sapiens, MDA-MB-231, 72-144 hr
Procedure: as §1

[5] = system: A549; test: Cell viability assay (resazurin), A549; format: cell-based; conditions: Homo sapiens, 72-144 hr
Procedure: as §1

[6] = system: HepG2; test: Cell viability assay (resazurin), HepG2; format: cell-based; conditions: Homo sapiens, 72-144 hr
Procedure: as §1

[7] = system: MCF7; test: Cell viability assay (resazurin), MCF7; format: cell-based; conditions: Homo sapiens, 72-144 hr
Procedure: as §1

[8] = system: 22Rv1; test: Cell viability assay (resazurin), 22Rv1; format: cell-based; conditions: Homo sapiens, 72-144 hr
Procedure: as §1

[9] = molecular target: T1, ALK 5 (Homo sapiens, UniProt P36897); test: In vitro kinase assay (ALK5 IC50, LanthaScreen Terbium labeled TR-FRET); format: biochemical; conditions: TGF-β kinase 6 nM, ATP 10 μM, read-out: Enzyme Activity ALK 5 IC50
T1 sequence (P36897 34-503): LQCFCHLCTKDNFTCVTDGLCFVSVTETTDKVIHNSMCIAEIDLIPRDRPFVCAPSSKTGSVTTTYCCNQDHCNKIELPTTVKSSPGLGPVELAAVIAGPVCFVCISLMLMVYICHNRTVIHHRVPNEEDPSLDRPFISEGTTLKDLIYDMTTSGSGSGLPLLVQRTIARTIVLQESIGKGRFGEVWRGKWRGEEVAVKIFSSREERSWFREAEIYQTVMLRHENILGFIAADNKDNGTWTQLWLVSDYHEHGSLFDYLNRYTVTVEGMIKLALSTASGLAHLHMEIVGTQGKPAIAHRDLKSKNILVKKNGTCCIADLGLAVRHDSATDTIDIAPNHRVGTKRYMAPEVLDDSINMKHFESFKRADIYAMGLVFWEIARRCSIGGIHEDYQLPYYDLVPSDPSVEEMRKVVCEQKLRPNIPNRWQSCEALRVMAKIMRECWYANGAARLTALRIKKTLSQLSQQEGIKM
Method in brief: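 LanthaScreen Tb TR-FRET: ALK5 (6 nM) preincubated 10 min with 3-fold diluted compounds, then 10 μM ATP and 200 nM fluorescent PolyGT substrate added for 1 h at room temperature. Stopped with EDTA/Tb antibody; 520/495 nm emission read. IC50 from four-parameter fit versus DMSO and no-enzyme controls.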

[10] = system: AsPC-1; test: Cell viability assay (resazurin), AsPC-1; format: cell-based; conditions: Homo sapiens, ASPC1, 72-144 hr
Procedure: as §1

[11] = system: phosphorylation of Smad-2 in THP-1 cells; test: Inhibition of phosphorylation of Smad-2 in THP-1 cells (Phospho-Smad2 ELISA); format: cell-based; conditions: 1.5 h, human TGF-β 20 ng/ml, 90 min, read-out: pSmad2 IC50
Procedure: IC50 values of compounds for determining inhibition of phosphorylation of Smad-2 in THP-1 cells (ATCC, Cat # ATCC® TIB-202™) cultured in RPMI medium, (Cat #22400089; with 10% FBS, Gibco, ThermoFisher). THP-1 cells (1.0×10^6 cells/well; 6 well plate) were incubated with serial dilutions of compounds (3 fold, 5 point dose response starting at 10 μM) for 60 min at 37° C., 5% CO2 in an incubator (cell culture conditions) prior to treating them with Recombinant Human TGF-β (20 ng/ml soluble; Cat #100-21, Peprotech) for 90 min. The cells were then pelleted and processed for protein estimation and evaluation of pSmad using ELISA kit from Cell Signaling (PathScan(R) Phospho-Smad2 (Ser465/467) Sandwich ELISA; Cat #7348C) as per manufacturer's protocol. Data analysis was done by subtracting the background absorbance (only negative control) value from each reading and then normalizing with the vehicle control (DMSO treated cells) to obtain percent levels of pSmad-2. Percent inhibition thus obtained (by subtracting expression levels of pSmad from 100) at different doses was used to calculate IC50 by fitting the curve to the “four-parameter variable slope logistic model” using Prism Graph Pad.

[12] = system: HCT116; test: Cell viability assay (resazurin), HCT116; format: cell-based; conditions: Homo sapiens, HCT-116, 72-144 hr
Procedure: as §1

| Structure (SMILES) | pIC50 [1] | pIC50 [2] | pIC50 [3] | pIC50 [4] | pIC50 [5] | pIC50 [6] | pIC50 [7] | pIC50 [8] | pIC50 [9] | pIC50 [10] | pIC50 [11] | pIC50 [12] |
| --- | --- | --- | --- | --- | --- | --- | --- | --- | --- | --- | --- | --- |
| CC(C)c1[nH]c(=O)c(-c2cc(Cl)ccc2F)cc1Nc1ccncc1C(N)=O [Compound 1.43, 4-((5-(5-chloro-2-fluorophenyl)-2-isopropyl-6-oxo-1,6-dihydropyridin-3-yl)amino)nicotinamide] | < 4.52 | < 4.52 | < 4.52 | < 4.52 | < 4.52 | < 4.52 | < 5.00 | < 4.52 | ≥ 6.30 | – | – | – |
| CC(C)c1[nH]c(=O)c(-c2cc(Cl)ccc2F)cc1Nc1ccnc2c1CC(=O)N2 [Compound 1.61, 4-((5-(5-chloro-2-fluorophenyl)-2-isopropyl-6-oxo-1,6-dihydropyridin-3-yl)amino)-1,3-dihydro-2H-pyrrolo[2,3-b]pyridin-2-one] | – | – | – | < 4.52 | – | < 4.52 | < 4.52 | – | ≥ 6.30 | < 4.52 | 5.88 | < 4.52 |
